# Data taken from patent publication US9957263B2, “Bromodomain inhibitors” (AbbVie Inc., priority 2013, dated 2018).
# Tests used:
# BRD4 (BDI_K57-E168) = BRD4 (BDI_K57-E168) (Homo sapiens (Human), UniProt O60885); assay: TR-FRET bromodomain binding assay, BRD4 first bromodomain; details: His-tagged BD1, Alexa647-labeled probe 100 nM
# Description: (§1) A time-resolved fluorescence resonance energy transfer (TR-FRET) assay was used to determine the affinities of compounds of the Examples listed in Table 1 for each bromodomain of BRD4. His-tagged first (BD1: amino acids K57-E168) and second (BD2: amino acids E352-E168) bromodomains of BRD4 were expressed and purified. An Alexa647-labeled BET-inhibitor was used as the fluorescent probe in the assay.
# (§2) Compound dilution series were prepared in DMSO via a 3-fold serial dilution from 2.5 mM to 42 nM. Compounds were then diluted 6:100 in assay buffer (20 mM Sodium Phosphate, pH 6.0, 50 mM NaCl, 1 mM Ethylenediaminetetraacetic acid disodium salt dihydrate, 0.01% Triton X-100, 1 mM DL-Dithiothreitol) to yield 3× working solutions. Six microliters (μL) of the working solution was then transferred to white, low-volume assay plates (Costar #3673). A 1.5× assay mixture containing His-tagged bromodomain, Europium-conjugated anti-His antibody (Invitrogen PV5596) and the Alexa-647-conjugated probe molecule was also prepared. Twelve μL of this solution were added to the assay plate to reach a final volume of 18 μL. The final concentration of 1× assay buffer contains 2% DMSO, 50 μM-0.85 nM compound, 8 nM His-tagged bromodomain, 1 nM Europium-conjugated anti-His-tag antibody and 100 nM or 30 nM probe (for BDI or BDII, respectively). After a one-hour incubation at room temperature, TR-FRET ratios were determined using an Envision multilabel plate reader (Ex 340, Em […]).
# (§3) TR-FRET data were normalized to the means of 24 no-compound controls (“high”) and 8 controls containing 1 μM un-labeled probe (“low”). Percent inhibition was plotted as a function of compound concentration and the data were fit with the 4 parameter logistic equation to obtain IC50s. Inhibition constants (Ki) were calculated from the IC50s, probe Kd and probe concentration. Typical Z′ values were between 0.65 and 0.75. The minimum significant ratio was determined to evaluate assay reproducibility (Eastwood et al., (2006) J Biomol Screen, 11: 253-261). The MSR was determined to be 2.03 for BDI and 1.93 for BDII, and a moving MSR (last six run MSR overtime) for both BDI and BDII was typically <3.
# BRD4 (BDII_E352-M457) = BRD4 (BDII_E352-M457) (Homo sapiens (Human), UniProt O60885); assay: TR-FRET bromodomain binding assay, BRD4 second bromodomain; details: His-tagged BD2, Alexa647-labeled probe 30 nM
# Description: as §1, §2, §3
SMILES,Ki (BRD4 (BDI_K57-E168)),Ki (BRD4 (BDII_E352-M457))
"Cn1cc(-c2cc(S(C)(=O)=O)ccc2Oc2cccc(C(=O)NCCCN3CCCC3=O)c2)c2cc[nH]c2c1=O [Example 27, 3-[2-(6-methyl-7-oxo-6,7-dihydro-1H-pyrrolo[2,3-c]pyridin-4-yl)-4-(methylsulfonyl)phenoxy]-N-[3-(2-oxopyrrolidin-1-yl)propyl]benzamide]",26 nM,11 nM
"Cn1cc(-c2cc(S(C)(=O)=O)ccc2Oc2cccc(C(=O)N3CCN(C4CCCC4)CC3)c2)c2cc[nH]c2c1=O [Example 28, 4-[2-{3-[(4-cyclopentylpiperazin-1-yl)carbonyl]phenoxy}-5-(methylsulfonyl)phenyl]-6-methyl-1,6-dihydro-7H-pyrrolo[2,3-c]pyridin-7-one]",13 nM,11 nM
"CC(=O)N1CCN(C(=O)c2cccc(Oc3ccc(S(C)(=O)=O)cc3-c3cn(C)c(=O)c4[nH]ccc34)c2)CC1 [Example 30, 4-[2-{3-[(4-acetylpiperazin-1-yl)carbonyl]phenoxy}-5-(methylsulfonyl)phenyl]-6-methyl-1,6-dihydro-7H-pyrrolo[2,3-c]pyridin-7-one]",28 nM,17 nM
"CN(CC#N)C(=O)c1cccc(Oc2ccc(S(C)(=O)=O)cc2-c2cn(C)c(=O)c3[nH]ccc23)c1 [Example 32, N-(cyanomethyl)-N-methyl-3-[2-(6-methyl-7-oxo-6,7-dihydro-1H-pyrrolo[2,3-c]pyridin-4-yl)-4-(methylsulfonyl)phenoxy]benzamide]",21 nM,10 nM
"CN(C)CCNC(=O)c1cccc(Oc2ccc(S(C)(=O)=O)cc2-c2cn(C)c(=O)c3[nH]ccc23)c1 [Example 33, N-[2-(dimethylamino)ethyl]-3-[2-(6-methyl-7-oxo-6,7-dihydro-1H-pyrrolo[2,3-c]pyridin-4-yl)-4-(methylsulfonyl)phenoxy]benzamide]",8.1 nM,3.1 nM
"Cn1cc(-c2cc(S(C)(=O)=O)ccc2Oc2cccc(C(=O)NCCN3CCCC3)c2)c2cc[nH]c2c1=O [Example 35, 3-[2-(6-methyl-7-oxo-6,7-dihydro-1H-pyrrolo[2,3-c]pyridin-4-yl)-4-(methylsulfonyl)phenoxy]-N-[2-(pyrrolidin-1-yl)ethyl]benzamide]",3.1 nM,1.9 nM
"Cn1cc(-c2cc(S(C)(=O)=O)ccc2Oc2cccc(C(=O)NCc3ccc(F)cc3F)c2)c2cc[nH]c2c1=O [Example 37, N-(2,4-difluorobenzyl)-3-[2-(6-methyl-7-oxo-6,7-dihydro-1H-pyrrolo[2,3-c]pyridin-4-yl)-4-(methylsulfonyl)phenoxy]benzamide]",18 nM,6 nM
"Cn1cc(-c2cc(S(C)(=O)=O)ccc2Oc2cccc(NS(=O)(=O)Cc3ccccc3)c2)c2cc[nH]c2c1=O [Example 38, N-{3-[2-(6-methyl-7-oxo-6,7-dihydro-1H-pyrrolo[2,3-c]pyridin-4-yl)-4-(methylsulfonyl)phenoxy]phenyl}-1-phenylmethanesulfonamide]",5.1 nM,1.9 nM
"Cn1cc(-c2cc(S(C)(=O)=O)ccc2Oc2cccc(NS(=O)(=O)c3cccc(F)c3)c2)c2cc[nH]c2c1=O [Example 40, 3-fluoro-N-{3-[2-(6-methyl-7-oxo-6,7-dihydro-1H-pyrrolo[2,3-c]pyridin-4-yl)-4-(methylsulfonyl)phenoxy]phenyl}benzenesulfonamide]",5.4 nM,2 nM
"COc1cccc(S(=O)(=O)Nc2cccc(Oc3ccc(S(C)(=O)=O)cc3-c3cn(C)c(=O)c4[nH]ccc34)c2)c1 [Example 42, 3-methoxy-N-{3-[2-(6-methyl-7-oxo-6,7-dihydro-1H-pyrrolo[2,3-c]pyridin-4-yl)-4-(methylsulfonyl)phenoxy]phenyl}benzenesulfonamide]",9.1 nM,3.5 nM
"Cn1cc(-c2cc(S(C)(=O)=O)ccc2Oc2cccc(NS(=O)(=O)c3ccc([N+](=O)[O-])cc3)c2)c2cc[nH]c2c1=O [Example 43, N-{3-[2-(6-methyl-7-oxo-6,7-dihydro-1H-pyrrolo[2,3-c]pyridin-4-yl)-4-(methylsulfonyl)phenoxy]phenyl}-4-nitrobenzenesulfonamide]",5 nM,3 nM
"CC(=O)c1ccc(S(=O)(=O)Nc2cccc(Oc3ccc(S(C)(=O)=O)cc3-c3cn(C)c(=O)c4[nH]ccc34)c2)cc1 [Example 44, 4-acetyl-N-{3-[2-(6-methyl-7-oxo-6,7-dihydro-1H-pyrrolo[2,3-c]pyridin-4-yl)-4-(methylsulfonyl)phenoxy]phenyl}benzenesulfonamide]",4.9 nM,2.1 nM
"CN(C)c1cccc2c(S(=O)(=O)Nc3cccc(Oc4ccc(S(C)(=O)=O)cc4-c4cn(C)c(=O)c5[nH]ccc45)c3)cccc12 [Example 45, 5-(dimethylamino)-N-{3-[2-(6-methyl-7-oxo-6,7-dihydro-1H-pyrrolo[2,3-c]pyridin-4-yl)-4-(methylsulfonyl)phenoxy]phenyl}naphthalene-1-sulfonamide]",16 nM,3.3 nM

# Continued by falling Ki (BRD4 (BDI_K57-E168)), values first:
Ki (BRD4 (BDI_K57-E168)),Ki (BRD4 (BDII_E352-M457)),SMILES
21 nM,11 nM,"Cn1cc(-c2cc(S(C)(=O)=O)ccc2Oc2cccc(C(=O)N3CCC(C(F)(F)F)CC3)c2)c2cc[nH]c2c1=O [Example 31, 6-methyl-4-[5-(methylsulfonyl)-2-(3-{[4-(trifluoromethyl)piperidin-1-yl]carbonyl}phenoxy)phenyl]-1,6-dihydro-7H-pyrrolo[2,3-c]pyridin-7-one]"
19 nM,9.1 nM,"CN(C)CCN1CCN(C(=O)c2cccc(Oc3ccc(S(C)(=O)=O)cc3-c3cn(C)c(=O)c4[nH]ccc34)c2)CC1 [Example 29, 4-{2-[3-({4-[2-(dimethylamino)ethyl]piperazin-1-yl}carbonyl)phenoxy]-5-(methylsulfonyl)phenyl}-6-methyl-1,6-dihydro-7H-pyrrolo[2,3-c]pyridin-7-one]"
15 nM,3.6 nM,"Cn1cc(-c2cc(S(C)(=O)=O)ccc2Oc2cccc(C(=O)NC[C@H]3CCCO3)c2)c2cc[nH]c2c1=O [Example 34, 3-[2-(6-methyl-7-oxo-6,7-dihydro-1H-pyrrolo[2,3-c]pyridin-4-yl)-4-(methylsulfonyl)phenoxy]-N-[(2R)-tetrahydrofuran-2-ylmethyl]benzamide]"
14 nM,5.7 nM,"Cn1cc(-c2cc(S(C)(=O)=O)ccc2Oc2cccc(C(=O)NCc3cc(F)cc(F)c3)c2)c2cc[nH]c2c1=O [Example 36, N-(3,5-difluorobenzyl)-3-[2-(6-methyl-7-oxo-6,7-dihydro-1H-pyrrolo[2,3-c]pyridin-4-yl)-4-(methylsulfonyl)phenoxy]benzamide]"
11 nM,5.1 nM,"Cn1cc(-c2cc(S(C)(=O)=O)ccc2Oc2cccc(NS(=O)(=O)c3ccc(F)cc3)c2)c2cc[nH]c2c1=O [Example 41, 4-fluoro-N-{3-[2-(6-methyl-7-oxo-6,7-dihydro-1H-pyrrolo[2,3-c]pyridin-4-yl)-4-(methylsulfonyl)phenoxy]phenyl}benzenesulfonamide]"
4.6 nM,2.1 nM,"COc1ccc(S(=O)(=O)Nc2cccc(Oc3ccc(S(C)(=O)=O)cc3-c3cn(C)c(=O)c4[nH]ccc34)c2)cc1 [Example 39, 4-methoxy-N-{3-[2-(6-methyl-7-oxo-6,7-dihydro-1H-pyrrolo[2,3-c]pyridin-4-yl)-4-(methylsulfonyl)phenoxy]phenyl}benzenesulfonamide]"
